As a reminder, the melting point is the temperature of the solid-liquid transition. As for `CC1(C)CCC(C)(C)c2cc(-c3ccc4cc(C(=O)O)cc(O)c4c3)ccc21`, the melting point was 299 °C.

Compound `COc1ccc(C(CC(C)=O)N2C(=O)c3cccc(N(S(C)(=O)=O)S(C)(=O)=O)c3C2=O)cc1OC` (stereo not given) had a melting point of 194 to 196 °C. Regarding `CCCCN=c1cc2n(c(=O)n1C)CCc1cc(OC)c(OC)cc1-2`, the melting point was in the range of 120 to 121 °C. In turn, `CCCn1c(=O)c(C(=O)OCC)c(N2CCN(C(=O)c3cccs3)CC2)c2cccnc21` had a melting point of 92 to 96 °C. As for `COc1ccc(S(=O)(=O)N(Cc2cccnc2)c2c(C(=O)O)cc(C)cc2-c2ccco2)cc1`, the figure is 82 °C; as for `C[C@@H]1CN(CC(=O)Nc2nccc3ccccc23)C[C@H](C)N1c1ncnc2sccc12`, 206 to 207 °C.

Consider `CN1CCN(C(=O)c2cn(C)nc2Nc2ccc(C(F)(F)F)cc2N)CC1`, for which the melting point is 170 °C.

As to `COc1cc(N(Cc2cccnc2)c2ccc(C(=O)O)cc2)ccc1OC(F)F`, the melting point was in the range of 184 to 185 °C. Then `N#Cc1ccc(CCO)nc1`, with 92 to 93 °C; and `CCOC(=O)C(Cc1ccc(C(C(N)=O)C(C)c2ccccc2N2CCCCC2)cc1)C(=O)OCC` (stereo not given), with 123 to 125 °C; and `CCCCCCCCCCCCCCCCCCOc1cccc(C(=O)C(=O)OC)c1`, with 50 to 52 °C. Then `Cc1ccc(C)c2c1CCC2=NNC(N)=NC(c1ccccc1)c1ccccc1`, with 271 to 273 °C. As to `CN(C)c1ccc(NC(=O)N(CCC2=CCCCC2)C[C@H]2CC[C@H](CN(CCC3=CCCCC3)C(=O)Nc3ccc(N(C)C)cc3)CC2)cc1`, the melting point was 152 to 155 °C.

Consider `Cc1nc2c(C)cccn2c(=O)c1CCN1CCC(c2noc3cc(F)ccc23)CC1`, for which the melting point turned out to be 200 °C. `COc1ccc(-c2nc(Sc3ccccc3NC(C)=O)[nH]c2-c2ccc(OC)cc2)cc1`: the melting point came to 183 °C.

`N#Cc1ccc(-c2cn(-c3ccc(C#N)cc3)c(C(O)c3ccccc3)n2)cc1` (stereo not given) displayed a melting point of 217 to 222 °C.

`CC(=O)C(O)C1OC(n2cc(C#N)c(=O)[nH]c2=O)CC1C(C)=O` (stereo not given): the melting point lay within 160 to 162 °C. Then `COC(=O)c1ccc(C(=O)N[C@@H](CC(C)C)C(=O)N[C@@H](C(C)C)[C@@H](O)c2c(-c3ccccc3)c2=O)cc1`, with 125 to 128 °C; and `CCOC(=O)c1ccc(NC(=O)CCn2cnc3c(=O)[nH]cnc32)cc1`, with 265 to 269 °C. On to `CN1CC[C@H](c2c(O)cc(O)c3c(=O)cc(-c4ccccc4Cl)oc23)[C@H](O)C1`, for which the melting point amounted to 182 °C.

`OCC#Cc1ccc(Br)cn1` registered a melting point of 121 to 122 °C. With `Cc1ccc(Cl)c2sc(O)nc12`, the melting point was 266 °C. As for `NS(=O)(=O)c1cc(C(=O)O)cc(SCc2ccccn2)c1-c1ccccc1`, the figure is 83 to 86 °C; as for `CCN(CC)CCC(=O)Nc1ccc(NC(=O)Nc2ccc(N(CCCl)CCCl)cc2)cc1`, 178 to 179 °C.

The compound `COC(=O)C[C@]1(C(=O)OC)CC(c2ccc(OC)c(OC3CCCC3)c2)=NO1` came in with a melting point of 92 to 93 °C. For the compound `COc1ccc(C=C(Cl)Cl)c(C(=O)O)c1`, the melting point lay in the range of 164 to 166 °C. Then `Cc1ccc(S(=O)(=O)NC(C)(C)CO)cc1NC(=O)c1cnn2c(C3CC3)cc(-c3ccc(C(F)(F)F)cc3)nc12`, with 232 to 233 °C. As for `CN1CC[C@@H](c2c(O)cc(O)c3c(=O)cc(-c4ccc(Br)cc4Cl)oc23)[C@@H]1CO`, the melting point was 155 to 156 °C.

As to `CCOC(=O)N1CCN(c2c(F)cc([N+](=O)[O-])c(F)c2CO)CC1`, the melting point lay within 147 to 149 °C. `CCOC(=O)c1ccc(NC(=O)C=C(C)c2ccc(Cl)c(Cl)c2)cc1` returned a melting point of 149 to 150 °C.

Turning to `CCOc1cc2cc(CO)cc(-c3ccnc(-n4nc(-c5ccccc5)c5ccccc5c4=O)c3)c2cc1OCC`, the melting point was in the range of 203 to 204 °C. The compound `O=C(O)C1=Cc2cc(C3CCCCC3)ccc2CC1` registered a melting point of 179 to 180 °C. Then `C1=C(c2c[nH]c3ccccc23)CCN(CC2COc3ccc4nocc4c3O2)C1` (stereo not given), with 110 °C; and `CC(C)NCC(O)COc1ccccc1C1=NNC(=O)CC1` (stereo not given), with 124 to 126 °C.

`CCCCNC(=O)Oc1cccc(NC(=O)C=C(CCC)OC)c1` came in with a melting point of 150 °C. The compound `NC(=O)C(Br)c1c(Cl)cc([N+](=O)[O-])cc1Cl` (stereo not given) yielded a melting point of 195 to 197 °C. On to `CCOC(=O)C1CCc2c(c3ccccc3n2C(=O)c2ccccc2)C1` (stereo not given), for which the melting point lay within 67 to 69 °C. Then `O=C1CCC(N2Cc3c(OCc4ccc(CN5CCCOCC5)cc4)cccc3C2=O)C(=O)N1` (stereo not given), with 119 to 121 °C; and `COc1ccc(C2=CCN(Cc3n[nH]c4ccccc34)CC2)cc1`, with 157 to 159 °C. For `COC(=O)CC[C@H](NC(=O)CCCCC=Cc1cnc2nc(NC(=O)C(C)(C)C)nc(O)c2c1)C(=O)OC`, the melting point lay within 79 to 81 °C. `O=C(c1ccc(C(=O)N2CCC[C@@H]3CCCC[C@H]32)cc1)N1CCCCC1` (relative stereo) gave a melting point of 136 to 137 °C.

`CCCCc1nc2ccn(Cc3ccccc3)c(=O)c2n1Cc1ccc(-c2ccccc2-c2nnn[nH]2)cc1`: the melting point stood at 130 °C. Then `Fc1ccc(N2CCN(CCCc3[nH]nc4c3CCCC4)CC2)cc1`, with 106 to 108 °C; and `Cc1ccccc1Sc1ccc2c(c1)CC[C@H]1NC(=O)CC[C@]21C`, with 192 °C; and `Cc1ccc2c(c1)c(Cc1nc3cc(C(F)(F)F)ccc3s1)cn2CC(=O)O`, with 248 to 249 °C. The compound `O=C(CC1CCCCC1=O)c1ccc(Cl)c(Cl)c1` (stereo not given) returned a melting point of 78 to 79 °C.

For `CCc1nc(N)nc(N)c1-c1ccc(N(C)Cc2ccc(C(=O)NC)cc2)c([N+](=O)[O-])c1`, the melting point was in the range of 235 to 237 °C. Turning to `CN1Cc2c(C#C[Si](C)(C)C)ncn2-c2cccc(Cl)c2C1=O`, the melting point was in the range of 186 to 187 °C. Regarding `COC(=O)Cc1ccc2c(c1)CCN2C(C)=O`, the melting point was 104 to 105 °C. Then `CN1CCCC1CCNNC(=O)N1CCC(c2[nH]nc3c2C(=O)c2c(NC(=O)NN4CCOCC4)cccc2-3)CC1` (stereo not given), with 91 to 93 °C; and `Cc1cc2c(s1)CCCc1cc(=O)n(-c3ccc(Cl)cc3)nc1-2`, with 150 to 151 °C. Regarding `CCC[C@H]1CC[C@H](C(=O)Oc2ccc(-c3ccc(F)cc3)cc2)CC1`, the melting point is 96 °C. Regarding `Cc1ccc(Nc2nc(C)cs2)nc1`, the melting point was in the range of 212 to 214 °C.

The compound `O=C(O)C(=O)c1ccc(OCCOc2cc3ccccc3cc2OCCOc2ccccc2)cc1` displayed a melting point of 176 to 177 °C.

`CCC(=O)Nc1ccc2c(Nc3cccc(Br)c3)ncnc2c1`: the melting point was 282 to 283 °C.

`Cc1ccc(NC(=O)c2ccc(C(=O)Nc3ccccc3NC(=O)OC(C)(C)C)nc2)cc1Nc1nc(-c2cccnc2)cs1`: the melting point fell in the range of 222 to 224 °C. As for `COc1ccc(C(C)C)cc1-c1cc(-c2nnnn2C2CCCN(C(=O)OC(C)(C)C)C2)c(O)cc1O` (stereo not given), the melting point was 227 to 229 °C. Then `CN(C)CC(=O)N1c2ccccc2NC(=O)c2cncnc21`, with 208 to 210 °C. As for `CS(=O)(=O)c1ccc(-c2oc(CO)cc(=O)c2Oc2ccc(Cl)cc2)cc1`, the figure is 227 °C.

`O=C1OC(COc2ccc(CO)cc2)CN1c1ccc(Cl)cc1` (stereo not given) returned a melting point of 149 to 150 °C.

`COc1ccc(Cc2nc3cc(Cl)cc(CCO)c3o2)cc1OC1CCCC1` displayed a melting point of 74 to 76 °C. As for `CC(=O)c1ccc2cc(S(N)(=O)=O)sc2c1`, the figure is 154 to 155 °C; as for `CS(=O)(=O)Nc1ccc(C(O)C2CCN(CCc3ccccc3)CC2)cc1` (stereo not given), 164 to 166 °C; as for `CCC(CC)(CC(=O)Nc1cccc(OCc2ccc3ccc(C(C)=O)cc3n2)c1)C(=O)O`, 164 °C. `Fc1ccccc1-c1cccc2[nH]c3c(c12)CCN(Cc1ccccc1)CC3`: the melting point was 157 to 159 °C. As for `O=C1C2=CSCCN2C(=O)N1c1cccc(Cl)c1F`, the figure is 118 to 120 °C; as for `Cc1ccccc1Cc1nc[nH]c1C`, 138 to 140 °C; as for `CCc1nc2cc(/C=C/C(=O)NO)ccc2c(=O)n1CCc1ccccc1`, 209 to 211 °C.

For the compound `Cc1cc(C)cc(OCCCC(=O)O)c1`, the melting point was 66 to 68.5 °C.

Turning to `C[C@H](NC(=O)c1c(C(=O)O)cccc1[N+](=O)[O-])C(=O)N1CCC[C@H]1C(=O)O`, the melting point was in the range of 134 to 137 °C.

`CC(=O)COc1cc(N2C(=O)c3ccccc3C2=O)ccc1N1C(=O)c2ccccc2C1=O` yielded a melting point of 300 °C. `COc1cc2c(cc1OCc1ccccc1)CCN(Cc1cccc(O[Si](C(C)C)(C(C)C)C(C)C)c1)C2`: the melting point lay within 78 to 79 °C. As for `COC(=O)C1=C(C)NC(CC(=O)N2CCN(C3CCC4CCC3C4)CC2)=C(C(=O)OC)C1c1c(Cl)cccc1Cl` (stereo not given), the figure is 197 to 207 °C; as for `CCCCc1oc2ccccc2c1-c1ncc(-c2ccc3cc(O)ccc3c2)o1`, 184 to 186 °C.

Consider `O=C(O)[C@@H]1Cc2cc(Cl)cc(Cl)c2S[C@H]1C(F)(F)F` (relative stereo), for which the melting point lay within 165 to 170 °C.

`COc1cc(C(C)=O)ccc1OC1CCCC1` registered a melting point of 55 to 56 °C. For the compound `COc1ccc(C2CCN(C(=O)NCc3ccccn3)CC2)cc1OC1CCCC1`, the melting point was in the range of 104 to 105 °C.

The compound `COC1CCc2[nH]c3ccccc3c2C1` (stereo not given) gave a melting point of 105 °C. Then `CC1(C)OCCC2N1C(=O)C2(Sc1ccccc1)C1(O)CCSCC1` (stereo not given), with 191 to 192 °C; and `CC1(C)NC(=O)c2ccccc21`, with 159 to 160 °C; and `C=C(NC(=O)OC(C)(C)C)C(=O)OCc1ccc([N+](=O)[O-])cc1`, with 94 to 95 °C.

Compound `CCOC(=O)c1ccc2sc(C=Cc3cccnc3)c(C)c2c1` displayed a melting point of 123 to 124 °C. `Oc1cccc(CCCn2ccnc2)c1` registered a melting point of 110 to 111 °C. Take `O=C(O)c1cc(-n2cccc2)cc(C(F)(F)F)c1`: the melting point lay in the range of 191 to 192 °C. `O=C(O)c1cn(C2CC2)c2cc(-c3ccncc3)ccc2c1=O` displayed a melting point of 278 to 281 °C.

(Values after a melting point compilation (Tetko et al.; mined from patent text by program, amines drawn as free bases though some values may be those of a salt).)
